Experimental data published in PubChem BioAssay AID2060616 (Molecular Pharmacology Branch, DTP, NCI, 2025).
One block for each compound: values may come before it.

System: 377384-186-R-J1-PDC complex spheroid viability
Assay: Anticancer human tumor 377384-186-R-J1-PDC patient-derived pancreatic carcinoma cell line growth inhibition [CLK]
Conditions: for IC50: curve of first compound; for viability, T/C: stronger effect = lower value
Summary of the method: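 Patient-derived tumor cells grown as complex spheroids with HUVEC endothelial cells and mesenchymal stem cells, treated with drug combinations. Concentrations descend in half-log steps from near clinical Cmax, or from 10 microM if Cmax unknown.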

[1] = second compound 0.0316 µM, first compound 0.0316 µM
[2] = second compound 0.0316 µM, first compound 0.1 µM
[3] = second compound 0.0316 µM, first compound 0.316 µM
[4] = second compound 0.0316 µM, first compound 1 µM
[5] = second compound 0.0316 µM, first compound 3.16 µM
[6] = second compound 0.0316 µM, first compound 10 µM
[7] = second compound 0.1 µM, first compound 0.0316 µM
[8] = second compound 0.1 µM, first compound 0.1 µM
[9] = second compound 0.1 µM, first compound 0.316 µM
[10] = second compound 0.1 µM, first compound 1 µM
[11] = second compound 0.1 µM, first compound 3.16 µM
[12] = second compound 0.1 µM, first compound 10 µM
[13] = second compound 0.316 µM, first compound 0.0316 µM
[14] = second compound 0.316 µM, first compound 0.1 µM
[15] = second compound 0.316 µM, first compound 0.316 µM
[16] = second compound 0.316 µM, first compound 1 µM
[17] = second compound 0.316 µM, first compound 3.16 µM
[18] = second compound 0.316 µM, first compound 10 µM
[19] = second compound 1 µM, first compound 0.0316 µM
[20] = second compound 1 µM, first compound 0.1 µM
[21] = second compound 1 µM, first compound 0.316 µM
[22] = second compound 1 µM, first compound 1 µM
[23] = second compound 1 µM, first compound 3.16 µM
[24] = second compound 1 µM, first compound 10 µM
[25] = second compound 3.16 µM, first compound 0.0316 µM
[26] = second compound 3.16 µM, first compound 0.1 µM
[27] = second compound 3.16 µM, first compound 0.316 µM
[28] = second compound 3.16 µM, first compound 1 µM
[29] = second compound 3.16 µM, first compound 3.16 µM
[30] = second compound 3.16 µM, first compound 10 µM
[31] = second compound 10 µM, first compound 0.0316 µM
[32] = second compound 10 µM, first compound 0.1 µM
[33] = second compound 10 µM, first compound 0.316 µM
[34] = second compound 10 µM, first compound 1 µM
[35] = second compound 10 µM, first compound 3.16 µM
[36] = second compound 10 µM, first compound 10 µM
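Also: spheroids exposed to agents for 7 days before reading.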
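For viability, T/C in this document: luminescence signal used as a stand-in for viable cells.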

SMILES: CC(=O)O[C@H]1C(=O)[C@@]2(C)[C@H]([C@H](OC(=O)c3ccccc3)[C@]3(O)C[C@H](OC(=O)[C@H](O)[C@@H](NC(=O)c4ccccc4)c4ccccc4)C(C)=C1C3(C)C)[C@]1(OC(C)=O)CO[C@@H]1C[C@@H]2O + CN1CCN(c2cc(C(=O)Nc3cc4cc(-c5cnn(C)c5)ccc4cn3)ccn2)CC1
IC50 (second compound 0.0316 µM): < 31.6 nM
IC50 (second compound 0.1 µM): < 31.6 nM
IC50 (second compound 0.316 µM): < 31.6 nM
IC50 (second compound 1 µM): < 31.6 nM
IC50 (second compound 3.16 µM): < 31.6 nM
IC50 (second compound 10 µM): < 31.6 nM
viability, T/C [1]: 9.18%
viability, T/C [2]: 9.07%
viability, T/C [3]: 7.15%
viability, T/C [4]: 8.23%
viability, T/C [5]: 10.1%
viability, T/C [6]: 14.8%
viability, T/C [7]: 7.97%
viability, T/C [8]: 9.15%
viability, T/C [9]: 10.9%
viability, T/C [10]: 10.7%
viability, T/C [11]: 8.46%
viability, T/C [12]: 15.1%
viability, T/C [13]: 9.05%
viability, T/C [14]: 9.91%
viability, T/C [15]: 10.6%
viability, T/C [16]: 11.4%
viability, T/C [17]: 15.1%
viability, T/C [18]: 14.1%
viability, T/C [19]: 0.76%
viability, T/C [20]: 0.53%
viability, T/C [21]: 1.35%
viability, T/C [22]: 0.93%
viability, T/C [23]: 0.78%
viability, T/C [24]: 1.13%
viability, T/C [25]: 0.39%
viability, T/C [26]: 0.51%
viability, T/C [27]: 0.58%
viability, T/C [28]: 0.7%
viability, T/C [29]: 1.32%
viability, T/C [30]: 2.27%
viability, T/C [31]: 0.34%
viability, T/C [32]: 0.28%
viability, T/C [33]: 0.49%
viability, T/C [34]: 0.48%
viability, T/C [35]: 0.4%
viability, T/C [36]: 0.37%

SMILES: COc1ccc([C@@H](O)c2cc(-c3ncnc4cc(N5CCOCC5)ccc34)c(F)cc2Cl)nn1 + CN1CCN(c2cc(C(=O)Nc3cc4cc(-c5cnn(C)c5)ccc4cn3)ccn2)CC1
IC50 (second compound 0.0316 µM): 6040 nM
IC50 (second compound 0.1 µM): 4230 nM
IC50 (second compound 0.316 µM): < 31.6 nM
IC50 (second compound 1 µM): < 31.6 nM
IC50 (second compound 3.16 µM): < 31.6 nM
IC50 (second compound 10 µM): < 31.6 nM
viability, T/C [1]: 119%
viability, T/C [2]: 111%
viability, T/C [3]: 88.8%
viability, T/C [4]: 78.2%
viability, T/C [5]: 59.3%
viability, T/C [6]: 42.5%
viability, T/C [7]: 114%
viability, T/C [8]: 99.9%
viability, T/C [9]: 73.7%
viability, T/C [10]: 70.6%
viability, T/C [11]: 57.6%
viability, T/C [12]: 37.2%
viability, T/C [13]: 18.3%
viability, T/C [14]: 22.8%
viability, T/C [15]: 16.8%
viability, T/C [16]: 18.1%
viability, T/C [17]: 18.5%
viability, T/C [18]: 16%
viability, T/C [19]: 0.76%
viability, T/C [20]: 0.63%
viability, T/C [21]: 0.7%
viability, T/C [22]: 1.13%
viability, T/C [23]: 1.12%
viability, T/C [24]: 1.02%
viability, T/C [25]: 0.38%
viability, T/C [26]: 0.32%
viability, T/C [27]: 1.16%
viability, T/C [28]: 0.36%
viability, T/C [29]: 0.35%
viability, T/C [30]: 0.98%
viability, T/C [31]: 0.49%
viability, T/C [32]: 0.35%
viability, T/C [33]: 0.33%
viability, T/C [34]: 0.39%
viability, T/C [35]: 1.26%
viability, T/C [36]: 0.36%

SMILES: COc1cccc2c1C(=O)c1c(O)c3c(c(O)c1C2=O)CC(O)(C(=O)CO)CC3OC1CC(N)C(O)C(C)O1 (stereo not given) + CN1CCN(c2cc(C(=O)Nc3cc4cc(-c5cnn(C)c5)ccc4cn3)ccn2)CC1
IC50 (second compound 0.0316 µM): < 31.6 nM
IC50 (second compound 0.1 µM): < 31.6 nM
IC50 (second compound 0.316 µM): < 31.6 nM
IC50 (second compound 1 µM): < 31.6 nM
IC50 (second compound 3.16 µM): < 31.6 nM
IC50 (second compound 10 µM): < 31.6 nM
viability, T/C [1]: 16.3%
viability, T/C [2]: 7.2%
viability, T/C [3]: 1.82%
viability, T/C [4]: 0.52%
viability, T/C [5]: 3.08%
viability, T/C [6]: 7.38%
viability, T/C [7]: 17.7%
viability, T/C [8]: 5.86%
viability, T/C [9]: 1.2%
viability, T/C [10]: 0.36%
viability, T/C [11]: 4.01%
viability, T/C [12]: 8.5%
viability, T/C [13]: 15.2%
viability, T/C [14]: 4.88%
viability, T/C [15]: 0.54%
viability, T/C [16]: 0.77%
viability, T/C [17]: 3.95%
viability, T/C [18]: 9.46%
viability, T/C [19]: 0.41%
viability, T/C [20]: 0.53%
viability, T/C [21]: 0.23%
viability, T/C [22]: 1.24%
viability, T/C [23]: 3.93%
viability, T/C [24]: 8.63%
viability, T/C [25]: 0.22%
viability, T/C [26]: 0.41%
viability, T/C [27]: 1.02%
viability, T/C [28]: 1.45%
viability, T/C [29]: 6.27%
viability, T/C [30]: 9.38%
viability, T/C [31]: 0.49%
viability, T/C [32]: 0.33%
viability, T/C [33]: 1.94%
viability, T/C [34]: 0.34%
viability, T/C [35]: 0.53%
viability, T/C [36]: 0.18%

IC50 (second compound 0.0316 µM): > 10000 nM
IC50 (second compound 0.1 µM): 1620 nM
IC50 (second compound 0.316 µM): < 31.6 nM
IC50 (second compound 1 µM): < 31.6 nM
IC50 (second compound 3.16 µM): < 31.6 nM
IC50 (second compound 10 µM): < 31.6 nM
SMILES: CCCS(=O)(=O)Nc1ccc(F)c(C(=O)c2c[nH]c3ncc(-c4ccc(Cl)cc4)cc23)c1F + CNC(=O)c1ccc(Nc2nc(OC3CCCC3)c3c(-c4ccc5nc(C)oc5c4)c[nH]c3n2)c(OC)c1
viability, T/C [1]: 103%
viability, T/C [2]: 118%
viability, T/C [3]: 115%
viability, T/C [4]: 123%
viability, T/C [5]: 107%
viability, T/C [6]: 52.5%
viability, T/C [7]: 65.1%
viability, T/C [8]: 70%
viability, T/C [9]: 49.1%
viability, T/C [10]: 59.7%
viability, T/C [11]: 44%
viability, T/C [12]: 37.2%
viability, T/C [13]: 19.9%
viability, T/C [14]: 22.5%
viability, T/C [15]: 23.6%
viability, T/C [16]: 22.6%
viability, T/C [17]: 32.6%
viability, T/C [18]: 24.3%
viability, T/C [19]: 18.9%
viability, T/C [20]: 20.6%
viability, T/C [21]: 23.6%
viability, T/C [22]: 27%
viability, T/C [23]: 30.7%
viability, T/C [24]: 24.8%
viability, T/C [25]: 19.8%
viability, T/C [26]: 25.4%
viability, T/C [27]: 23.9%
viability, T/C [28]: 28%
viability, T/C [29]: 29%
viability, T/C [30]: 23.4%
viability, T/C [31]: 21.5%
viability, T/C [32]: 23.3%
viability, T/C [33]: 26.8%
viability, T/C [34]: 29.1%
viability, T/C [35]: 31.1%
viability, T/C [36]: 29%

IC50 (second compound 0.0316 µM): 5940 nM
IC50 (second compound 0.1 µM): 4470 nM
IC50 (second compound 0.316 µM): < 31.6 nM
IC50 (second compound 1 µM): < 31.6 nM
IC50 (second compound 3.16 µM): < 31.6 nM
IC50 (second compound 10 µM): < 31.6 nM
SMILES: COC1C=CCC(C)C(C)S(=O)(=O)NC(=O)c2ccc3c(c2)N(CC2CCC21)CC1(CCCc2cc(Cl)ccc21)CO3 (stereo not given) + CNC(=O)c1ccc(Nc2nc(OC3CCCC3)c3c(-c4ccc5nc(C)oc5c4)c[nH]c3n2)c(OC)c1
viability, T/C [1]: 100%
viability, T/C [2]: 99.6%
viability, T/C [3]: 97.8%
viability, T/C [4]: 92.9%
viability, T/C [5]: 84.2%
viability, T/C [6]: 22.4%
viability, T/C [7]: 57.9%
viability, T/C [8]: 61.9%
viability, T/C [9]: 56%
viability, T/C [10]: 68.4%
viability, T/C [11]: 60%
viability, T/C [12]: 26.2%
viability, T/C [13]: 19.9%
viability, T/C [14]: 17.2%
viability, T/C [15]: 18.3%
viability, T/C [16]: 16.8%
viability, T/C [17]: 23%
viability, T/C [18]: 19.2%
viability, T/C [19]: 19%
viability, T/C [20]: 17.6%
viability, T/C [21]: 14.9%
viability, T/C [22]: 12.4%
viability, T/C [23]: 17.8%
viability, T/C [24]: 21.9%
viability, T/C [25]: 18.9%
viability, T/C [26]: 18.9%
viability, T/C [27]: 13.4%
viability, T/C [28]: 13.9%
viability, T/C [29]: 14.6%
viability, T/C [30]: 20.8%
viability, T/C [31]: 18.5%
viability, T/C [32]: 16.6%
viability, T/C [33]: 15.1%
viability, T/C [34]: 12.4%
viability, T/C [35]: 12.3%
viability, T/C [36]: 18%
